Measured values from the OligoGym collection.
Oligonucleotides are given in HELM: sugar(base)linkage, 5' to 3'; d 2'-deoxyribose, r ribose, m 2'-O-methylribose, p phosphate. ss, as = sense and antisense strand

Target: Mmp7 (rat)
Assay: reporter assay of Huesken 2005
Settings: siRNA
Further: test concentration or dose not given here.

Substance	normalised inhibition (eCFP-eYFP dual reporter) [%]
RNA1{r(U)p.r(G)p.r(U)p.r(G)p.r(A)p.r(U)p.r(G)p.r(U)p.r(A)p.r(C)p.r(C)p.r(C)p.r(U)p.r(A)p.r(C)p.r(C)p.r(U)p.r(A)p.r(U)p.d(T)p.d(T)}|RNA2{r(A)p.r(U)p.r(A)p.r(G)p.r(G)p.r(U)p.r(A)p.r(G)p.r(G)p.r(G)p.r(U)p.r(A)p.r(C)p.r(A)p.r(U)p.r(C)p.r(A)p.r(C)p.r(A)p.d(G)p.d(A)}$$$RNA1{StrandType:ss}|RNA2{StrandType:as}$	107
RNA1{r(U)p.r(G)p.r(U)p.r(U)p.r(U)p.r(G)p.r(U)p.r(U)p.r(G)p.r(C)p.r(C)p.r(A)p.r(C)p.r(U)p.r(C)p.r(A)p.r(U)p.r(G)p.r(A)p.d(T)p.d(T)}|RNA2{r(U)p.r(C)p.r(A)p.r(U)p.r(G)p.r(A)p.r(G)p.r(U)p.r(G)p.r(G)p.r(C)p.r(A)p.r(A)p.r(C)p.r(A)p.r(A)p.r(A)p.r(C)p.r(A)p.d(G)p.d(G)}$$$RNA1{StrandType:ss}|RNA2{StrandType:as}$	105
RNA1{r(U)p.r(U)p.r(A)p.r(C)p.r(C)p.r(U)p.r(U)p.r(C)p.r(A)p.r(C)p.r(G)p.r(A)p.r(C)p.r(U)p.r(C)p.r(U)p.r(A)p.r(A)p.r(A)p.d(T)p.d(T)}|RNA2{r(U)p.r(U)p.r(U)p.r(A)p.r(G)p.r(A)p.r(G)p.r(U)p.r(C)p.r(G)p.r(U)p.r(G)p.r(A)p.r(A)p.r(G)p.r(G)p.r(U)p.r(A)p.r(A)p.d(A)p.d(A)}$$$RNA1{StrandType:ss}|RNA2{StrandType:as}$	131
RNA1{r(U)p.r(U)p.r(C)p.r(A)p.r(G)p.r(A)p.r(A)p.r(G)p.r(A)p.r(C)p.r(U)p.r(U)p.r(C)p.r(A)p.r(G)p.r(U)p.r(C)p.r(U)p.r(U)p.d(T)p.d(T)}|RNA2{r(A)p.r(A)p.r(G)p.r(A)p.r(C)p.r(U)p.r(G)p.r(A)p.r(A)p.r(G)p.r(U)p.r(C)p.r(U)p.r(U)p.r(C)p.r(U)p.r(G)p.r(A)p.r(A)p.d(T)p.d(G)}$$$RNA1{StrandType:ss}|RNA2{StrandType:as}$	92.5
RNA1{r(U)p.r(U)p.r(C)p.r(C)p.r(U)p.r(G)p.r(U)p.r(U)p.r(U)p.r(G)p.r(U)p.r(U)p.r(G)p.r(C)p.r(C)p.r(A)p.r(C)p.r(U)p.r(C)p.d(T)p.d(T)}|RNA2{r(G)p.r(A)p.r(G)p.r(U)p.r(G)p.r(G)p.r(C)p.r(A)p.r(A)p.r(C)p.r(A)p.r(A)p.r(A)p.r(C)p.r(A)p.r(G)p.r(G)p.r(A)p.r(A)p.d(G)p.d(T)}$$$RNA1{StrandType:ss}|RNA2{StrandType:as}$	37.6
RNA1{r(U)p.r(U)p.r(C)p.r(G)p.r(C)p.r(A)p.r(A)p.r(G)p.r(G)p.r(G)p.r(G)p.r(A)p.r(G)p.r(A)p.r(U)p.r(C)p.r(A)p.r(C)p.r(G)p.d(T)p.d(T)}|RNA2{r(C)p.r(G)p.r(U)p.r(G)p.r(A)p.r(U)p.r(C)p.r(U)p.r(C)p.r(C)p.r(C)p.r(C)p.r(U)p.r(U)p.r(G)p.r(C)p.r(G)p.r(A)p.r(A)p.d(G)p.d(C)}$$$RNA1{StrandType:ss}|RNA2{StrandType:as}$	26.8
RNA1{r(U)p.r(U)p.r(G)p.r(C)p.r(C)p.r(G)p.r(G)p.r(A)p.r(G)p.r(A)p.r(C)p.r(U)p.r(G)p.r(G)p.r(A)p.r(A)p.r(A)p.r(G)p.r(C)p.d(T)p.d(T)}|RNA2{r(G)p.r(C)p.r(U)p.r(U)p.r(U)p.r(C)p.r(C)p.r(A)p.r(G)p.r(U)p.r(C)p.r(U)p.r(C)p.r(C)p.r(G)p.r(G)p.r(C)p.r(A)p.r(A)p.d(A)p.d(C)}$$$RNA1{StrandType:ss}|RNA2{StrandType:as}$	1.9
RNA1{r(U)p.r(U)p.r(U)p.r(A)p.r(C)p.r(C)p.r(U)p.r(U)p.r(C)p.r(A)p.r(C)p.r(G)p.r(A)p.r(C)p.r(U)p.r(C)p.r(U)p.r(A)p.r(A)p.d(T)p.d(T)}|RNA2{r(U)p.r(U)p.r(A)p.r(G)p.r(A)p.r(G)p.r(U)p.r(C)p.r(G)p.r(U)p.r(G)p.r(A)p.r(A)p.r(G)p.r(G)p.r(U)p.r(A)p.r(A)p.r(A)p.d(A)p.d(T)}$$$RNA1{StrandType:ss}|RNA2{StrandType:as}$	110

Target: TMEM63B
Assay: reporter assay of Huesken 2005
Settings: siRNA

Substance	normalised inhibition (eCFP-eYFP dual reporter) [%]
RNA1{r(A)p.r(A)p.r(C)p.r(C)p.r(A)p.r(C)p.r(C)p.r(A)p.r(U)p.r(U)p.r(G)p.r(C)p.r(C)p.r(A)p.r(A)p.r(C)p.r(U)p.r(U)p.r(G)p.d(T)p.d(T)}|RNA2{r(C)p.r(A)p.r(A)p.r(G)p.r(U)p.r(U)p.r(G)p.r(G)p.r(C)p.r(A)p.r(A)p.r(U)p.r(G)p.r(G)p.r(U)p.r(G)p.r(G)p.r(U)p.r(U)p.d(C)p.d(T)}$$$RNA1{StrandType:ss}|RNA2{StrandType:as}$	34.2
RNA1{r(A)p.r(A)p.r(C)p.r(G)p.r(C)p.r(C)p.r(A)p.r(U)p.r(G)p.r(G)p.r(A)p.r(C)p.r(C)p.r(U)p.r(G)p.r(C)p.r(U)p.r(G)p.r(C)p.d(T)p.d(T)}|RNA2{r(G)p.r(C)p.r(A)p.r(G)p.r(C)p.r(A)p.r(G)p.r(G)p.r(U)p.r(C)p.r(C)p.r(A)p.r(U)p.r(G)p.r(G)p.r(C)p.r(G)p.r(U)p.r(U)p.d(G)p.d(C)}$$$RNA1{StrandType:ss}|RNA2{StrandType:as}$	27.2
RNA1{r(A)p.r(A)p.r(C)p.r(G)p.r(U)p.r(G)p.r(C)p.r(C)p.r(U)p.r(A)p.r(C)p.r(C)p.r(A)p.r(U)p.r(G)p.r(A)p.r(U)p.r(C)p.r(A)p.d(T)p.d(T)}|RNA2{r(U)p.r(G)p.r(A)p.r(U)p.r(C)p.r(A)p.r(U)p.r(G)p.r(G)p.r(U)p.r(A)p.r(G)p.r(G)p.r(C)p.r(A)p.r(C)p.r(G)p.r(U)p.r(U)p.d(C)p.d(T)}$$$RNA1{StrandType:ss}|RNA2{StrandType:as}$	80.1
RNA1{r(A)p.r(A)p.r(G)p.r(A)p.r(U)p.r(C)p.r(A)p.r(A)p.r(G)p.r(A)p.r(A)p.r(G)p.r(C)p.r(A)p.r(U)p.r(U)p.r(U)p.r(U)p.r(G)p.d(T)p.d(T)}|RNA2{r(C)p.r(A)p.r(A)p.r(A)p.r(A)p.r(U)p.r(G)p.r(C)p.r(U)p.r(U)p.r(C)p.r(U)p.r(U)p.r(G)p.r(A)p.r(U)p.r(C)p.r(U)p.r(U)p.d(T)p.d(T)}$$$RNA1{StrandType:ss}|RNA2{StrandType:as}$	61.7
RNA1{r(A)p.r(A)p.r(G)p.r(G)p.r(A)p.r(G)p.r(A)p.r(A)p.r(C)p.r(G)p.r(U)p.r(G)p.r(C)p.r(C)p.r(U)p.r(A)p.r(C)p.r(C)p.r(A)p.d(T)p.d(T)}|RNA2{r(U)p.r(G)p.r(G)p.r(U)p.r(A)p.r(G)p.r(G)p.r(C)p.r(A)p.r(C)p.r(G)p.r(U)p.r(U)p.r(C)p.r(U)p.r(C)p.r(C)p.r(U)p.r(U)p.d(G)p.d(C)}$$$RNA1{StrandType:ss}|RNA2{StrandType:as}$	70.2
RNA1{r(A)p.r(C)p.r(A)p.r(G)p.r(C)p.r(C)p.r(A)p.r(U)p.r(G)p.r(A)p.r(C)p.r(C)p.r(G)p.r(G)p.r(U)p.r(A)p.r(U)p.r(G)p.r(A)p.d(T)p.d(T)}|RNA2{r(U)p.r(C)p.r(A)p.r(U)p.r(A)p.r(C)p.r(C)p.r(G)p.r(G)p.r(U)p.r(C)p.r(A)p.r(U)p.r(G)p.r(G)p.r(C)p.r(U)p.r(G)p.r(U)p.d(C)p.d(C)}$$$RNA1{StrandType:ss}|RNA2{StrandType:as}$	56.4
RNA1{r(A)p.r(C)p.r(C)p.r(A)p.r(G)p.r(G)p.r(U)p.r(G)p.r(G)p.r(U)p.r(G)p.r(G)p.r(C)p.r(C)p.r(G)p.r(C)p.r(G)p.r(C)p.r(C)p.d(T)p.d(T)}|RNA2{r(G)p.r(G)p.r(C)p.r(G)p.r(C)p.r(G)p.r(G)p.r(C)p.r(C)p.r(A)p.r(C)p.r(C)p.r(A)p.r(C)p.r(C)p.r(U)p.r(G)p.r(G)p.r(U)p.d(T)p.d(C)}$$$RNA1{StrandType:ss}|RNA2{StrandType:as}$	57.6
RNA1{r(A)p.r(C)p.r(C)p.r(C)p.r(U)p.r(G)p.r(C)p.r(U)p.r(G)p.r(C)p.r(U)p.r(G)p.r(U)p.r(G)p.r(G)p.r(U)p.r(G)p.r(C)p.r(U)p.d(T)p.d(T)}|RNA2{r(A)p.r(G)p.r(C)p.r(A)p.r(C)p.r(C)p.r(A)p.r(C)p.r(A)p.r(G)p.r(C)p.r(A)p.r(G)p.r(C)p.r(A)p.r(G)p.r(G)p.r(G)p.r(U)p.d(G)p.d(G)}$$$RNA1{StrandType:ss}|RNA2{StrandType:as}$	58.5
RNA1{r(A)p.r(C)p.r(G)p.r(C)p.r(U)p.r(C)p.r(U)p.r(G)p.r(G)p.r(G)p.r(G)p.r(A)p.r(G)p.r(A)p.r(A)p.r(C)p.r(A)p.r(G)p.r(G)p.d(T)p.d(T)}|RNA2{r(C)p.r(C)p.r(U)p.r(G)p.r(U)p.r(U)p.r(C)p.r(U)p.r(C)p.r(C)p.r(C)p.r(C)p.r(A)p.r(G)p.r(A)p.r(G)p.r(C)p.r(G)p.r(U)p.d(G)p.d(T)}$$$RNA1{StrandType:ss}|RNA2{StrandType:as}$	48.3
RNA1{r(A)p.r(C)p.r(G)p.r(G)p.r(A)p.r(C)p.r(A)p.r(C)p.r(A)p.r(G)p.r(A)p.r(C)p.r(U)p.r(U)p.r(C)p.r(C)p.r(A)p.r(G)p.r(U)p.d(T)p.d(T)}|RNA2{r(A)p.r(C)p.r(U)p.r(G)p.r(G)p.r(A)p.r(A)p.r(G)p.r(U)p.r(C)p.r(U)p.r(G)p.r(U)p.r(G)p.r(U)p.r(C)p.r(C)p.r(G)p.r(U)p.d(G)p.d(A)}$$$RNA1{StrandType:ss}|RNA2{StrandType:as}$	85.7
RNA1{r(A)p.r(C)p.r(U)p.r(A)p.r(C)p.r(A)p.r(A)p.r(G)p.r(C)p.r(G)p.r(G)p.r(G)p.r(A)p.r(G)p.r(A)p.r(A)p.r(G)p.r(G)p.r(A)p.d(T)p.d(T)}|RNA2{r(U)p.r(C)p.r(C)p.r(U)p.r(U)p.r(C)p.r(U)p.r(C)p.r(C)p.r(C)p.r(G)p.r(C)p.r(U)p.r(U)p.r(G)p.r(U)p.r(A)p.r(G)p.r(U)p.d(C)p.d(T)}$$$RNA1{StrandType:ss}|RNA2{StrandType:as}$	72
RNA1{r(A)p.r(C)p.r(U)p.r(U)p.r(G)p.r(A)p.r(A)p.r(A)p.r(U)p.r(C)p.r(A)p.r(G)p.r(G)p.r(G)p.r(A)p.r(A)p.r(C)p.r(A)p.r(A)p.d(T)p.d(T)}|RNA2{r(U)p.r(U)p.r(G)p.r(U)p.r(U)p.r(C)p.r(C)p.r(C)p.r(U)p.r(G)p.r(A)p.r(U)p.r(U)p.r(U)p.r(C)p.r(A)p.r(A)p.r(G)p.r(U)p.d(T)p.d(G)}$$$RNA1{StrandType:ss}|RNA2{StrandType:as}$	34.4
